Measured values from patent US12077503B2, “Substituted cyclic amides and their use as herbicides” (FMC CORPORATION, priority 2015, dated 2024).

Tests used:
Assay type in all cases: in vivo
[1] = test system: ivy-leaved morning glory (Ipomoea hederacea); assay: Test G Post-Emergence Protocol; conditions: Ipomoea, post-emergence, 312 h, read-out: Morningglory, Ivy-leaved damage rating; for pest or weed control at 15.625 g/ha: 15.625 g ai/ha, evaluated after 13 days (100=total damage to plant; 0=no damage to plant); for pest or weed control at 62.5 g/ha: 62.5 g ai/ha; for pest or weed control at 62.5 g/ha / pest or weed control at 250 g/ha: evaluated after 13 days, 100=total damage to plant, 0=no damage to plant; for pest or weed control at 250 g/ha: 250 g ai/ha
Summary of the method: (§1)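 Seedlings grown 8 days in soil in a glasshouse (24/16 °C day/night, 14 h light, 65% humidity) were sprayed post-emergence with compound in acetone/water 50:50 plus 0.5% Tween 20 at 15.625, 62.5 or 250 g/ha. Damage was scored after 13 days on a 0–100 scale (100 = total damage).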

[2] = test system: velvetleaf (Abutilon theophrasti); assay: Test G Post-Emergence Protocol; conditions: Abutilon theophrasti, post-emergence, 312 h, read-out: Velvetleaf damage rating; for pest or weed control at 15.625 g/ha: 15.625 g ai/ha, evaluated after 13 days (100=total damage to plant; 0=no damage to plant); for pest or weed control at 62.5 g/ha: 62.5 g ai/ha; for pest or weed control at 62.5 g/ha / pest or weed control at 250 g/ha: evaluated after 13 days, 100=total damage to plant, 0=no damage to plant; for pest or weed control at 250 g/ha: 250 g ai/ha
Summary of the method: as §1

[3] = test system: barnyardgrass (Echinochloa crus-galli); assay: Test G Post-Emergence Protocol; conditions: Echinochloa crus-galli, post-emergence, 312 h, read-out: Barnyardgrass damage rating; for pest or weed control at 15.625 g/ha: 15.625 g ai/ha, evaluated after 13 days (100=total damage to plant; 0=no damage to plant); for pest or weed control at 62.5 g/ha: 62.5 g ai/ha; for pest or weed control at 62.5 g/ha / pest or weed control at 250 g/ha: evaluated after 13 days, 100=total damage to plant, 0=no damage to plant; for pest or weed control at 250 g/ha: 250 g ai/ha
Summary of the method: as §1

[4] = test system: giant foxtail (Setaria faberi); assay: Test G Post-Emergence Protocol; conditions: Setaria faberi, post-emergence, 312 h, read-out: Foxtail, Giant damage rating; for pest or weed control at 15.625 g/ha: 15.625 g ai/ha, evaluated after 13 days (100=total damage to plant; 0=no damage to plant); for pest or weed control at 62.5 g/ha: 62.5 g ai/ha; for pest or weed control at 62.5 g/ha / pest or weed control at 250 g/ha: evaluated after 13 days, 100=total damage to plant, 0=no damage to plant; for pest or weed control at 250 g/ha: 250 g ai/ha
Summary of the method: as §1

corn (Zea mays) [5] = assay: Test G Post-Emergence Protocol; conditions: Zea mays, post-emergence, 312 h, read-out: Corn damage rating; for plant injury at 15.625 g/ha: 15.625 g ai/ha, evaluated after 13 days (100=total damage to plant; 0=no damage to plant); for plant injury at 62.5 g/ha: 62.5 g ai/ha; for plant injury at 62.5 g/ha / plant injury at 250 g/ha: evaluated after 13 days, 100=total damage to plant, 0=no damage to plant; for plant injury at 250 g/ha: 250 g ai/ha
Summary of the method: as §1

[6] = test system: redroot pigweed (Amaranthus retroflexus); assay: Test G Post-Emergence Protocol; conditions: Amaranthus retroflexus, post-emergence, 312 h, read-out: Pigweed, Redroot damage rating; for pest or weed control at 15.625 g/ha: 15.625 g ai/ha, evaluated after 13 days (100=total damage to plant; 0=no damage to plant); for pest or weed control at 62.5 g/ha: 62.5 g ai/ha; for pest or weed control at 62.5 g/ha / pest or weed control at 250 g/ha: evaluated after 13 days, 100=total damage to plant, 0=no damage to plant; for pest or weed control at 250 g/ha: 250 g ai/ha
Summary of the method: as §1

[7] = test system: ivy-leaved morning glory (Ipomoea hederacea); assay: Test G Pre-Emergence Protocol; conditions: Ipomoea, pre-emergence, 312 h, evaluated after 13 days; for pest or weed control at 62.5 g/ha: 62.5 g ai/ha, 100=total damage to plant, 0=no damage to plant, read-out: Morningglory, Ivy-leaved damage rating; for pest or weed control at 250 g/ha: 250 g ai/ha
Summary of the method: (§2)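 Scores are visual damage ratings from 0 (no damage) to 100 (total plant kill), taken 13 days after treatment. Compound was sprayed one day post-sowing at 15.625, 62.5 or 250 g/ha in 50:50 acetone/water with 0.5% Tween 20.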

[8] = test system: velvetleaf (Abutilon theophrasti); assay: Test G Pre-Emergence Protocol; conditions: Abutilon theophrasti, pre-emergence, 312 h, evaluated after 13 days; for pest or weed control at 15.625 g/ha: 15.625 g ai/ha; for pest or weed control at 15.625 g/ha / pest or weed control at 250 g/ha: read-out: Velvetleaf damage rating (100=total damage to plant; 0=no damage to plant); for pest or weed control at 62.5 g/ha: 62.5 g ai/ha, 100=total damage to plant, 0=no damage to plant, read-out: Velvetleaf damage rating; for pest or weed control at 250 g/ha: 250 g ai/ha
Summary of the method: as §2

[9] = test system: barnyardgrass (Echinochloa crus-galli); assay: Test G Pre-Emergence Protocol; conditions: Echinochloa crus-galli, pre-emergence, 312 h, evaluated after 13 days; for pest or weed control at 15.625 g/ha: 15.625 g ai/ha; for pest or weed control at 15.625 g/ha / pest or weed control at 250 g/ha: read-out: Barnyardgrass damage rating (100=total damage to plant; 0=no damage to plant); for pest or weed control at 62.5 g/ha: 62.5 g ai/ha, 100=total damage to plant, 0=no damage to plant, read-out: Barnyardgrass damage rating; for pest or weed control at 250 g/ha: 250 g ai/ha
Summary of the method: as §2

[10] = test system: giant foxtail (Setaria faberi); assay: Test G Pre-Emergence Protocol; conditions: Setaria faberi, pre-emergence, 312 h, evaluated after 13 days; for pest or weed control at 15.625 g/ha: 15.625 g ai/ha; for pest or weed control at 15.625 g/ha / pest or weed control at 250 g/ha: read-out: Foxtail, Giant damage rating (100=total damage to plant; 0=no damage to plant); for pest or weed control at 62.5 g/ha: 62.5 g ai/ha, 100=total damage to plant, 0=no damage to plant, read-out: Foxtail, Giant damage rating; for pest or weed control at 250 g/ha: 250 g ai/ha
Summary of the method: as §2

corn (Zea mays) [11] = assay: Test G Pre-Emergence Protocol; conditions: Zea mays, pre-emergence, 312 h, evaluated after 13 days; for plant injury at 15.625 g/ha: 15.625 g ai/ha; for plant injury at 15.625 g/ha / plant injury at 250 g/ha: read-out: Corn damage rating (100=total damage to plant; 0=no damage to plant); for plant injury at 62.5 g/ha: 62.5 g ai/ha, 100=total damage to plant, 0=no damage to plant, read-out: Corn damage rating; for plant injury at 250 g/ha: 250 g ai/ha
Summary of the method: as §2

[12] = test system: redroot pigweed (Amaranthus retroflexus); assay: Test G Pre-Emergence Protocol; conditions: Amaranthus retroflexus, pre-emergence, 312 h, evaluated after 13 days; for pest or weed control at 15.625 g/ha: 15.625 g ai/ha; for pest or weed control at 15.625 g/ha / pest or weed control at 250 g/ha: read-out: Pigweed, Redroot damage rating (100=total damage to plant; 0=no damage to plant); for pest or weed control at 62.5 g/ha: 62.5 g ai/ha, 100=total damage to plant, 0=no damage to plant, read-out: Pigweed, Redroot damage rating; for pest or weed control at 250 g/ha: 250 g ai/ha
Summary of the method: as §2

[13] = read-out: Morningglory, Ivy-leaved damage rating (100=total damage to plant; 0=no damage to plant)

SMILES	pest or weed control at 15.625 g/ha [1]	pest or weed control at 62.5 g/ha [1]	pest or weed control at 250 g/ha [1]	pest or weed control at 15.625 g/ha [2]	pest or weed control at 62.5 g/ha [2]	pest or weed control at 250 g/ha [2]	pest or weed control at 15.625 g/ha [3]	pest or weed control at 62.5 g/ha [3]	pest or weed control at 250 g/ha [3]	pest or weed control at 15.625 g/ha [4]	pest or weed control at 62.5 g/ha [4]	pest or weed control at 250 g/ha [4]	plant injury at 15.625 g/ha (corn (Zea mays) [5])	plant injury at 62.5 g/ha (corn (Zea mays) [5])	plant injury at 250 g/ha (corn (Zea mays) [5])	pest or weed control at 15.625 g/ha [6]	pest or weed control at 62.5 g/ha [6]	pest or weed control at 250 g/ha [6]	pest or weed control at 62.5 g/ha [7]	pest or weed control at 250 g/ha [7, 13]	other results
CN1CC(c2cc(F)cc(OCC(F)(F)F)c2)C(C(=O)Nc2cccc(F)c2F)C1=O (centres unmarked) [Compound 1698]	10%	70%	70%	0%	10%	50%	60%	80%	80%	80%	80%	80%	20%	70%	70%	20%	30%	60%	0%	20%	pest or weed control at 15.625 g/ha ([7]; 15.625 g ai/ha, read-out: Morningglory, Ivy-leaved damage rating (100=total damage to plant; 0=no damage to plant)): 10%; pest or weed control at 15.625 g/ha [8]: 0%; pest or weed control at 62.5 g/ha [8]: 10%; pest or weed control at 250 g/ha [8]: 20%; pest or weed control at 15.625 g/ha [9]: 60%; pest or weed control at 62.5 g/ha [9]: 70%; pest or weed control at 250 g/ha [9]: 80%; pest or weed control at 15.625 g/ha [10]: 70%; pest or weed control at 62.5 g/ha [10]: 70%; pest or weed control at 250 g/ha [10]: 90%; plant injury at 15.625 g/ha (corn (Zea mays) [11]): 0%; plant injury at 62.5 g/ha (corn (Zea mays) [11]): 30%; plant injury at 250 g/ha (corn (Zea mays) [11]): 70%; pest or weed control at 15.625 g/ha [12]: 0%; pest or weed control at 62.5 g/ha [12]: 10%; pest or weed control at 250 g/ha [12]: 40%
Cc1cc(C2CN(C)C(=O)C2C(=O)Nc2cccc(F)c2F)cc(C)c1Cl (centres unmarked) [Compound 1700]	20%	20%	60%	0%	0%	0%	20%	50%	70%	40%	60%	70%	30%	30%	40%	0%	0%	0%	10%	20%	pest or weed control at 15.625 g/ha [8]: 0%; pest or weed control at 62.5 g/ha [8]: 0%; pest or weed control at 250 g/ha [8]: 0%; pest or weed control at 15.625 g/ha [9]: 20%; pest or weed control at 62.5 g/ha [9]: 50%; pest or weed control at 250 g/ha [9]: 70%; pest or weed control at 15.625 g/ha [10]: 40%; pest or weed control at 62.5 g/ha [10]: 80%; pest or weed control at 250 g/ha [10]: 90%; plant injury at 15.625 g/ha (corn (Zea mays) [11]): 0%; plant injury at 62.5 g/ha (corn (Zea mays) [11]): 0%; plant injury at 250 g/ha (corn (Zea mays) [11]): 30%; pest or weed control at 15.625 g/ha [12]: 0%; pest or weed control at 62.5 g/ha [12]: 0%; pest or weed control at 250 g/ha [12]: 0%
